pIC50: −log10 of the molar value. Where two headings read alike, the source gives them in different places.
Assays:
Assay in all cases: MTT cell viability assay
Format in all cases: cell-based
[1] = system: A-427; conditions: Homo sapiens, 48 h
Method: (§1) Distinct MTT cell viability and crystal violet cell proliferation assays were performed to assess the cytotoxicity of the compounds 1–6 on 14 human cancer cell lines. In the viability assay, cells with intact mitochondria and thus active dehydrogenases are competent to convert MTT to the corresponding insoluble formazan. The formazan can be photometrically detected after solubilization and allows for indirect conclusions about the viability of the cells as an IC50 value. In the crystal violet assay, cells are stained by the binding of the dye to the chromatin, thus allowing for a quantification of biomass that remains adherent after a treatment in comparison with a control after a specific time. Potency is defined as the growth inhibitory concentration 50% (GI50).
(§2) In addition to performing the cell viability assay under normoxia (19% atmospheric oxygen), incubations were also conducted under hypoxic conditions, i.e., atmospheric oxygen levels of 1% during the treatment for 48 h. Hypoxia is a favorable condition of the tumor microenvironment that is connected with poor outcome. Therefore, the low oxygen condition mimics better the tumor environment. The biological effect of the pentathiepins under this condition provides insight into their dependency for oxygen, which has been postulated a key component in the proposed mechanism of action (Figure 3). Consistent with the proposed mechanism of action for five of the compounds, potency decreased under hypoxic conditions; in fact for 6, the half-maximal inhibitory concentration exceeded the highest tested concentration of 10 µM in four cell lines (Figure 6, Table S3). […] In contrast to the other compounds, in some cell lines, the cytotoxic effects of 1 were more pronounced under oxygen-reduced incubation conditions (Figure 6), indicating a tangential role of oxygen availability for this pentathiepin. Especially for the breast cancer cell line MCF-7, the cytotoxicity increased substantially, indicated by a decrease of the IC50 from >10.0 µM to about 1.0 µM.
(§3) The effect of the pentathiepins on the viability of the cell lines was assessed via an MTT assay, performed as previously described. Healthy and viable cells convert the yellow soluble 3-(4,5-dimethylthiazol-2-yl)-2,5-diphenyltetrazolium bromide to the insoluble purple corresponding formazan, which can be spectrophotometrically measured. For this assay, 5000 cells (1 250 for LCLC-103H) in 0.1 mL of medium were seeded per well of a 96-well plate and incubated at standard conditions for 24 h prior to treatment. A serial dilution of the test compounds was prepared in medium, covering final concentrations from 10.0 to 0.04 µM, and 0.1 mL of the working solution was added to each well in triplicate. After 48 h, 20 µL of a 2.5 mg/mL MTT in PBS solution was pipetted into each well and further incubated for 4 h at standard conditions. Thereafter, medium was replaced with 50 µL DMSO, and the plates were put on a shaker for 5 min and subsequently read at λ = 570 nm, with a SpectraMax 384plus (Molecular Devices, Sunnyvale, CA, USA). The cell viabilities of the treatment conditions were calculated in relation to a solvent control sample. The absolute IC50 was calculated via nonlinear regression followed by interpolation of the dose–response graphs in Prism 7 (GraphPad, San Diego, CA, USA). The IC90 was derived from the IC50 by using the slope factor of the dose–response graph with the tool QuickCalcs from GraphPad (GraphPad Software, San Diego, CA, USA).

[2] = system: A2780cis; conditions: Homo sapiens, 48 h
Method: as §1, §2, §3

[3] = system: A2780; conditions: Homo sapiens; for pIC50: 48 h; for IC90: calculated via GraphPad QuickCalcs from MTT IC50 and slope factor
Method: as §1, §2, §3

[4] = system: DanG; conditions: Homo sapiens; for pIC50: 48 h; for IC90: calculated via GraphPad QuickCalcs from MTT IC50 and slope factor
Method: as §1, §2, §3

[5] = system: HAP-1.KO.GPx1; conditions: Homo sapiens; for pIC50: 48 h; for IC90: calculated via GraphPad QuickCalcs from MTT IC50 and slope factor
Method: as §1, §2, §3

[6] = system: HAP-1; conditions: Homo sapiens; for pIC50: HAP1, 48 h; for IC90: HAP1, calculated via GraphPad QuickCalcs from MTT IC50 and slope factor
Method: as §1, §2, §3

[7] = system: Kyse-70; conditions: Homo sapiens, 48 h
Method: as §1, §2, §3

[8] = system: LCLC-103H; conditions: Homo sapiens, 48 h
Method: as §1, §2, §3

[9] = system: PATU-8902; conditions: Homo sapiens; for pIC50: 48 h; for IC90: calculated via GraphPad QuickCalcs from MTT IC50 and slope factor
Method: as §1, §2, §3

[10] = system: RT-112; conditions: Homo sapiens, 48 h
Method: as §1, §2, §3

[11] = system: RT-4; conditions: Homo sapiens, 48 h
Method: as §1, §2, §3

[12] = system: Siso; conditions: Homo sapiens; for pIC50: 48 h; for IC90: calculated via GraphPad QuickCalcs from MTT IC50 and slope factor
Method: as §1, §2, §3

[13] = system: YAPC; conditions: Homo sapiens; for pIC50: 48 h; for IC90: calculated via GraphPad QuickCalcs from MTT IC50 and slope factor
Method: as §1, §2, §3

[14] = hypoxic (1% O2), read-out: IC50 MTT-H mean
[15] = normoxic (19% O2), read-out: IC50 MTT-N mean

SMILES	pIC50 [1, 14]	pIC50 [1, 15]	pIC50 [2, 14]	pIC50 [2, 15]	pIC50 [3, 14]	pIC50 [3, 15]	IC90 [3]	pIC50 [4, 14]	pIC50 [4, 15]	IC90 [4]	pIC50 [5, 14]	pIC50 [5, 15]	IC90 [5]	pIC50 [6, 14]	pIC50 [6, 15]	IC90 [6]	pIC50 [7, 14]	pIC50 [7, 15]	pIC50 [8, 14]	pIC50 [8, 15]	further results
CCOc1c2c(c3ccc(C(=O)N(CC)CC)cn13)SSSSS2 [Compound 4, 6-Ethoxy-N,N’-diethyl-[1,2,3,4,5]pentathiepino[6,7-a]indolizine-9-carboxamide]	5.92	5.96	6.26	6.40	6.10	6.67	610 nM	5.35	5.78	2710 nM	5.93	6.49	640 nM	6.08	6.58	510 nM	5.44	6.01	6.08	6.17	pIC50 [9, 14]: 5.90; pIC50 [9, 15]: 6.08; IC90 [9]: 6000 nM; pIC50 [10, 14]: 5.75; pIC50 [10, 15]: 5.92; pIC50 [11, 14]: 5.65; pIC50 [11, 15]: 5.88; pIC50 [12, 14]: 5.37; pIC50 [12, 15]: 6.03; IC90 [12]: 1930 nM; pIC50 [13, 14]: 5.66; pIC50 [13, 15]: 5.94; IC90 [13]: 3700 nM
CCOc1c2c(c3ccc(C(=O)N4CCN(C(=O)c5ccc(F)cc5)CC4)cn13)SSSSS2 [Compound 5, (6-Ethoxy-[1,2,3,4,5]pentathiepino[6,7-a]indolizin-9-yl)(4-(4-fluorobenzoyl)piperazinyl)methanone]	6.08	6.04	6.35	6.51	6.23	6.59	510 nM	5.79	5.93	2050 nM	6.04	6.38	720 nM	6.18	6.57	490 nM	5.82	6.08	6.17	6.10	pIC50 [9, 14]: 5.81; pIC50 [9, 15]: 5.92; IC90 [9]: 2570 nM; pIC50 [10, 14]: 5.95; pIC50 [10, 15]: 5.97; pIC50 [11, 14]: 5.76; pIC50 [11, 15]: 6.15; pIC50 [12, 14]: 5.73; pIC50 [12, 15]: 6.10; IC90 [12]: 1470 nM; pIC50 [13, 14]: 5.82; pIC50 [13, 15]: 5.87; IC90 [13]: 2200 nM
CCOc1c2c(c3cnc4[nH]c(-c5ccc(OC)cc5)cc4n13)SSSSS2 [Compound 1, 11-Ethoxy-2-(4-methoxyphenyl)-3H-[1,2,3,4,5]pentathiepino[6′,7′:3,4]pyrrolo[1,2-a]pyrrolo[2,3-e]pyrazine]	6.55	6.46	6.39	6.39	6.35	6.16	1870 nM	6.32	5.95	1710 nM	6.37	6.45	550 nM	6.42	6.40	710 nM	6.27	6.32	6.26	5.85	pIC50 [9, 14]: 6.27; pIC50 [9, 15]: 6.24; IC90 [9]: 1220 nM; pIC50 [10, 14]: 6.51; pIC50 [10, 15]: 6.40; pIC50 [11, 14]: 6.28; pIC50 [11, 15]: 5.72; pIC50 [12, 14]: 6.22; pIC50 [12, 15]: 6.38; IC90 [12]: 770 nM; pIC50 [13, 14]: 6.44; pIC50 [13, 15]: 6.11; IC90 [13]: 2470 nM
CCOc1c2c(c3ccc(C(=O)N4CCOCC4)cn13)SSSSS2 [Compound 3, (6-Ethoxy-[1,2,3,4,5]pentathiepino[6,7-a]indolizin-9-yl)(morpholino)methanone]	6.02	6.11	6.50	6.69	6.21	6.87	360 nM	5.58	5.84	2540 nM	6.04	6.43	800 nM	6.18	6.58	620 nM	5.64	6.08	6.09	6.24	pIC50 [9, 14]: 5.63; pIC50 [9, 15]: 5.98; IC90 [9]: 2480 nM; pIC50 [10, 14]: 5.83; pIC50 [10, 15]: 5.98; pIC50 [11, 14]: 5.64; pIC50 [11, 15]: 6.06; pIC50 [12, 14]: 5.56; pIC50 [12, 15]: 6.24; IC90 [12]: 1230 nM; pIC50 [13, 14]: 5.63; pIC50 [13, 15]: 5.91; IC90 [13]: 2240 nM

From article PMC8305076, “Comprehensive Evaluation of Biological Effects of Pentathiepins on Various Human Cancer Cell Lines and Insights into Their Mode of Action” (International Journal of Molecular Sciences, 2021)
